# Source: patent US10131648B2, “Substituted benzothiophenyl derivatives as GPR40 agonists for the treatment of type II diabetes” (Janssen Pharmaceutica NV, priority 2014, dated 2018)
# Tests used:
# human GPR40 = human GPR40 (Homo sapiens (Human), UniProt O14842); experiment: GPR40 Calcium Flux Assay; type: cell-based; details: transfected HEK293 cells stably expressing human GPR40; Ca2+ mobilization; mean data; read-out: hGPR40 Ca^2+ Assay EC50
# Male SD rats = experiment: Oral Glucose Tolerance Test; type: in vivo, rat; details: 10 mg/kg, thirty to forty min prior to oGTT (glucose, 2 g/kg, po), blood glucose AUC t=0 to t=120 minutes
# Method: Male SD rats (200-250 g) were housed 2 per cage in a temperature-controlled room with a 12-hour light/dark cycle. They were allowed ad libitum access to water and fed with normal rodent chow. The night before the oral glucose tolerance test (oGTT), the rats were transferred to clean cages and fasted overnight. On the morning of the oGTT, the rats were weighed and randomized into groups based on fasted blood glucose and body weight. Rats were dosed with vehicle (0.5% methocel) or compounds (10 mg/kg, po) thirty to forty min prior to the oGTT (glucose, 2 g/kg, po). Blood was collected from the tail vein at 0, 10, 30, 60 and 120 minutes after glucose challenge to measure blood glucose; plasma was used to determine insulin levels. The area under the curve for blood glucose excursion was calculated from t=0 to t=120 minutes. Percent lowering of glucose was calculated from the AUC data with respect to the vehicle-treated group.
# human GPR40, sequence (O14842 whole entry): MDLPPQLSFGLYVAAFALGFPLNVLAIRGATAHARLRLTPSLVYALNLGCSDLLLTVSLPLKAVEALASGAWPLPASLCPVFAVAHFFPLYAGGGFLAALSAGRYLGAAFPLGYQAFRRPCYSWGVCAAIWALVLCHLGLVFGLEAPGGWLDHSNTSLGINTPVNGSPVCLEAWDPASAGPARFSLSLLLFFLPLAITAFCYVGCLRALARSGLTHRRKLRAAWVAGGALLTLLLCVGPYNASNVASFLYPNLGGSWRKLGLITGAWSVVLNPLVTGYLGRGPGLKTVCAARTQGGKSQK
structure (smiles),measurement,setting,value
"CC#C[C@@H](CC(=O)O)c1ccc(OCc2ccc3scc(-c4ccccc4C)c3c2)cc1 [Cpd 2, (3S)-3-[4-[[3-(2-Methylphenyl)benzo[b]thiophen-5-yl]methoxy]phenyl]hex-4-ynoic acid]",EC50,human GPR40,5 nM
same,Percent Lowering of Glucose (AUC compound vs. AUC Vehicle),Male SD rats,72%
"CC#C[C@@H](CC(=O)O)c1ccc(OCc2ccc3scc(-c4ccc(OCCOC)cc4C)c3c2)cc1 [Cpd 16, (3S)-3-(4-((3-(4-(2-Methoxyethoxy)-2-methylphenyl)benzo[b]thiophen-5-yl)methoxy)phenyl)hex-4-ynoic acid]",EC50,human GPR40,5 nM
same,Percent Lowering of Glucose (AUC compound vs. AUC Vehicle),Male SD rats,76%
"CC#C[C@@H](CC(=O)O)c1ccc(OCc2ccc3scc(-c4ccc(C5CCNCC5)cc4C)c3c2)cc1 [Cpd 96, (3S)-3-(4-((3-(2-Methyl-4-(piperidin-4-yl)phenyl)benzo[b]thiophen-5-yl)methoxy)phenyl)hex-4-ynoic acid]",EC50,human GPR40,8 nM
"CC#CC(CC(=O)O)c1ccc(OCc2ccc3scc(-c4ccccc4C)c3c2)cc1 (stereo not shown) [Cpd 97, 3-(4-((3-(2-Methylphenyl)benzo[b]thiophen-5-yl)methoxy)phenyl)hex-4-ynoic acid]",EC50,human GPR40,2 nM
"CC#C[C@H](CC(=O)O)c1ccc(OCc2ccc3scc(-c4ccccc4C)c3c2)cc1 [Cpd 98, (3R)-3-[4-[[3-(2-Methylphenyl)benzo[b]thiophen-5-yl]methoxy]phenyl]hex-4-ynoic acid]",EC50,human GPR40,160 nM
